Results on 1 compound are retold here after patent publication US20240252697A1, “INACTIVATION OF PATHOGENS IN EX VIVO BLOOD PRODUCTS IN STORAGE BAGS USING VISIBLE LIGHT” (priority 2015, published 2024).

SMILES strings stand for the structures. Marks after values point to notes of the source that are not given here.

This experiment concerns feline calicivirus (FCV). The experiment in a line: 405 nm light inactivation of FCV suspended in supplemented minimal medium, counted by plaque assay on FEA cells. It counts as cell-based, feline calicivirus vaccine strain F9.

For `Cc1cc2nc3c(=O)[nH]c(=O)nc-3n(C[C@H](O)[C@H](O)[C@H](O)CO)c2cc1C` [Riboflavin], for the setting “FCV in MM plus components at DMEM concentrations, after”, the “Log10 reduction/inactivation of FCV” value is 1.3 Log10. Moreover, the “Exposed Viral Population (±St Dev)” value (FCV in minimal media plus photosensitive components at DMEM concentrations, 155 mW cm^−2, mean count n = 3 ± SD) is listed as 3.77 ± 0.61. In addition, the “Log10 Reduction” value (FCV in minimal media plus photosensitive components, 155 mW cm^−2, exposed vs non-exposed control, asterisk = P ≤ 0.05) is 1.28* Log10.
